pEC50: −log10 of the molar value.
Key:
797 cell line = experiment: Cell viability assay; format: cell-based; settings: read-out: 797 cellular EC50 (cellular potency)
BRD4 = BRD4 (Homo sapiens, UniProt O60885); experiment: AlphaScreen BRD binding assay; settings: calculated from BRD4 potency

SMILES | pEC50 (797 cell line) | ligand efficiency (as defined by Hopkins et al.) (BRD4)
Cc1sc2c(c1C)C(c1ccc(Cl)cc1)=N[C@@H](CC(=O)OC(C)(C)C)c1nnc(C)n1-2 [Compound 1] | 7.14 | 
Cc1noc(C)c1-c1ccc(C=O)cc1 [Compound 8] |  | 0.54

From paper PMC4234447 (Journal of Medicinal Chemistry, 2014)
